Test results taken from ChEMBL document CHEMBL4627336, “Inhibitory effects of biseokeaniamide A against lipopolysaccharide-induced signal transduction” (Bioorg Med Chem Lett, 2020).
Calls of active or inactive are those of the source. The calls are words filed in the database; no cut-off is given here. Where a SMILES comes first, the peptide text is derived from it. Bridges are numbered along the chain shown (N, C = ends). [ ]: non-standard residue; d: D form. The star is where a group is joined. NMeF = CN[C@@H](Cc1ccccc1)C(=O)O; NMeV = CN[C@H](C(=O)O)C(C)C; X2 = CC[C@H](C)CCCCC(=O)*; dDab = NCC[C@@H](N)C(=O)O; Dab = NCC[C@H](N)C(=O)O; Butyryl = CCCC(=O)*; X1 = CN(Cc1nccs1)*

Legend:
RAW264.7 [1] = experiment: Inhibition of LPS-induced TNFalpha production in mouse RAW264.7 cells at 1 to 30 uM preincubated for 1 hr followed by LPS stimulation and measured after 24 hrs by ELISA; assay type: functional, cell-based
RAW264.7 [2] = experiment: Inhibition of LPS-induced NO production in mouse RAW264.7 cells preincubated for 1 hr followed by LPS stimulation and measured after 24 hrs by Griess reagent based assay; assay type: functional, cell-based
RAW264.7 [3] = experiment: Inhibition of LPS-induced iNOS expression in mouse RAW264.7 cells at preincubated for 1 hr followed by LPS stimulation and measured after 24 hrs by Western blot analysis; assay type: functional, cell-based
RAW264.7 [4] = experiment: Inhibition of LPS-induced IkappaBalpha degradation in mouse RAW264.7 cells at 1 to 30 uM incubated for 30 mins by Western blot analysis; assay type: functional, cell-based
RAW264.7 [5] = experiment: Inhibition of LPS-induced IL-6 production in mouse RAW264.7 cells at 1 to 30 uM preincubated for 1 hr followed by LPS stimulation and measured after 24 hrs by ELISA; assay type: functional, cell-based
RAW264.7 [6] = experiment: Inhibition of LPS-induced degraded IkappaBalpha regeneration in mouse RAW264.7 cells at 10 uM measured upto 90 mins by Western blot analysis; assay type: functional, cell-based
RAW264.7 [7] = experiment: Cytotoxicity against mouse RAW264.7 cells assessed as reduction in cell viability upto 30 uM incubated for 24 hrs in presence of LPS by MTT assay; assay type: cell-based; settings: raw264.7, 24 h
RAW264.7 [8] = experiment: Inhibition of LPS-induced IL-1beta production in mouse RAW264.7 cells preincubated for 1 hr followed by LPS stimulation and measured after 24 hrs by ELISA; assay type: functional, cell-based
RAW264.7 [9] = experiment: Inhibition of LPS-induced iNOS expression in mouse RAW264.7 cells at 1 uM preincubated for 1 hr followed by LPS stimulation and measured after 24 hrs by Western blot analysis relative to control; assay type: functional
RAW264.7 [10] = experiment: Inhibition of LPS-induced NO production in mouse RAW264.7 cells at 0.1 to 10 uM preincubated for 1 hr followed by LPS stimulation and measured after 24 hrs by Griess reagent based assay; assay type: functional, cell-based
RAW264.7 [11] = experiment: Inhibition of LPS-induced TNFalpha production in mouse RAW264.7 cells at 1 uM preincubated for 1 hr followed by LPS stimulation and measured after 24 hrs by ELISA; assay type: functional, cell-based
RAW264.7 [12] = experiment: Inhibition of LPS-induced IkappaBalpha degradation in mouse RAW264.7 cells at 1 uM incubated for 30 mins by Western blot analysis; assay type: functional, cell-based
RAW264.7 [13] = experiment: Inhibition of LPS-induced IL-6 production in mouse RAW264.7 cells at 1 uM preincubated for 1 hr followed by LPS stimulation and measured after 24 hrs by ELISA; assay type: functional, cell-based
RAW264.7 [14] = experiment: Inhibition of LPS-induced IL-1beta production in mouse RAW264.7 cells at 1 uM preincubated for 1 hr followed by LPS stimulation and measured after 24 hrs by ELISA; assay type: functional, cell-based

In the case of `CCCC(=O)N(C)[C@H](C(=O)N1CCC[C@H]1C(=O)N(C)[C@@H](Cc1ccccc1)C(=O)N[C@@H](CC(C)C)C(=O)N(C)[C@H](C(=O)N(C)Cc1nccs1)C(C)C)C(C)C` (Butyryl-[NMeV]P[NMeF]L[NMeV]-X1), the inhibition (RAW264.7 [1]) is reported as “inactive”, the IC50 (RAW264.7 [2]) is reported as 6.47 µM and the inhibition (RAW264.7 [2]) is reported as “Dose-dependent effect”. The inhibition (RAW264.7 [3]) was “Dose-dependent effect”, the inhibition (RAW264.7 [4]) was “inactive” and the inhibition (RAW264.7 [5]) was “inactive”. The inhibition (RAW264.7 [6]) was “Active”, the Activity (RAW264.7 [7]) was “Non-Toxic” and the IC50 (RAW264.7 [8]) was 14.5 µM. For the same compound, the inhibition (RAW264.7 [8]) was “Dose-dependent effect”.
With `CC[C@H](C)CCCCC(=O)N[C@@H](CCN)C(=O)N[C@H](C(=O)N[C@@H](CCN)C(=O)N[C@H]1CCNC(=O)[C@H]([C@@H](C)O)NC(=O)[C@H](CCN)NC(=O)[C@H](CCN)NC(=O)[C@H](CC(C)C)NC(=O)[C@@H](Cc2ccccc2)NC(=O)[C@H](CCN)NC1=O)[C@@H](C)O` (X2-[Dab]T[Dab][Dab][Dab][dF]L[Dab][Dab]T; lactam 4-C) the inhibition at 1 µM (RAW264.7 [9]) was 100%.
With `CC[C@H](C)CCCCC(=O)N[C@@H](CCN)C(=O)N[C@H](C(=O)N[C@@H](CCN)C(=O)N[C@H]1CCNC(=O)[C@H]([C@@H](C)O)NC(=O)[C@H](CCN)NC(=O)[C@H](CCN)NC(=O)[C@H](CC(C)C)NC(=O)[C@@H](Cc2ccccc2)NC(=O)[C@@H](CCN)NC1=O)[C@@H](C)O` (X2-[Dab]T[Dab][Dab][dDab][dF]L[Dab][Dab]T; lactam 4-C) the inhibition (RAW264.7 [10]) was “Active”, the inhibition (RAW264.7 [11]) was “Active” and the inhibition (RAW264.7 [12]) was “Active”. The inhibition (RAW264.7 [13]) was “Active” and the inhibition (RAW264.7 [14]) was “Active”.
